Experiments:
[1] = target: T1, HDAC4 (Homo sapiens, UniProt P56524); experiment: HDACs enzymatic assay HDAC4; format: biochemical; details: Class IIa
T1 construct: purchased BPS BIOSCIENCE Inc 50004
Protocol: (§1) HDACs enzymatic assays were conducted according to our previous work. […] Substrates (Boc‐Lys(acetyl)‐AMC for HeLa nuclear extract, Ac‐Leu‐Gly‐Lys (Tfa)‐AMC for HDAC4, HDAC5, HDAC6, HDAC7, HDAC9, HDAC10, and HDAC11, Boc‐Lys(triflouroacetyl)‐AMC for HDAC8 and Ac‐Leu‐Gly‐Lys(acetyl)‐AMC for HDAC1, HDAC2, HDAC3) were added to the mixture. The blank group was set to no enzyme or drug but contains substrates and the control group was set to no drug but contains substrates and enzymes to each 96‐well plate. After 30 min of incubation at 37°C, the mixture was terminated with 1 mg/mL trypsin and 3 µM TSA. After another 30 min, the fluorescence intensity was measured using a Varioskan plate reader at 360/460 nm. […] The inhibition curves and IC50 values were simulated and calculated using the log(inhibitor) versus response (three parameters) mode in GraphPad Prism software.

[2] = test system: HeLa nuclear extract; experiment: HDAC inhibition, HeLa nuclear extract; format: biochemical
Protocol: HDACs enzymatic assays were conducted according to our previous work. In detail, the HeLa nuclear extract, HDAC1 (BPS BIOSCIENCE INC, 50051), HDAC2 (BPS BIOSCIENCE Inc; 50052), HDAC3/NCOR1 complex (BPS BIOSCIENCE Inc; 50003), HDAC4 (BPS BIOSCIENCE Inc; 50004), HDAC5 (BPS BIOSCIENCE Inc; 50005), HDAC6 (BPS BIOSCIENCE Inc; 50006), HDAC7 (BPS BIOSCIENCE Inc; 50007), HDAC8 (BPS BIOSCIENCE Inc; 50008), HDAC9 (BPS BIOSCIENCE Inc; 50009), HDAC10 (BPS BIOSCIENCE Inc; 50010), or HDAC11 (BPS BIOSCIENCE Inc; 50011) was diluted to the proper concentrations according to the relative enzymatic activity and the linear range of the plate reader and mixed with different concentrations of drugs. Substrates (Boc‐Lys(acetyl)‐AMC for HeLa nuclear extract, Ac‐Leu‐Gly‐Lys (Tfa)‐AMC for HDAC4, HDAC5, HDAC6, HDAC7, HDAC9, HDAC10, and HDAC11, Boc‐Lys(triflouroacetyl)‐AMC for HDAC8 and Ac‐Leu‐Gly‐Lys(acetyl)‐AMC for HDAC1, HDAC2, HDAC3) were added to the mixture. The blank group was set to no enzyme or drug but contains substrates and the control group was set to no drug but contains substrates and enzymes to each 96‐well plate. After 30 min of incubation at 37°C, the mixture was terminated with 1 mg/mL trypsin and 3 µM TSA. After another 30 min, the fluorescence intensity was measured using a Varioskan plate reader at 360/460 nm. […] The inhibition curves and IC50 values were simulated and calculated using the log(inhibitor) versus response (three parameters) mode in GraphPad Prism software.

[3] = target: T2, HDAC5 (Homo sapiens, UniProt Q9UQL6); experiment: HDACs enzymatic assay HDAC5; format: biochemical; details: Class IIa
T2 construct: purchased BPS BIOSCIENCE Inc 50005
Protocol: as §1

[4] = test system: MDA-MB-231 cells; experiment: Western blotting (immunoblotting); format: cell-based, human; details: 24 h
Source text: Anti‐H3 (#13998), anticleaved Caspase‐3 (#9661) and anti‐PARP (#9542) antibody was purchased from Cell Signal Technology (CST). Anti‐Caspase‐3 (T40044) was brought from Abmart. Antitubulin antibody (ab179484) was obtained from Abcam PLC. Anti‐Bcl‐2 (F0125) and anti‐Bax (F0037) antibody were purchased from Selleck Chemicals. Anti‐GAPDH antibody (AF1186) was obtained from Beyotime Inc. The protocol of Western blotting was the same as our previous works. In brief, 2.5 × 10^5 MDA‐MB‐231 cells were treated with different drugs or DMSO (equal volume to experimental groups) for 24 h and lysed with modified RIPA buffer. The cell lysates were added to loading buffer (Beyotime #P0015L) and heated in boiling water for 5 mins and then, together with biomarker (Epizymebiotech; 15–250 kDa), were electrophoresed in SDS‐PAGE gels under 80 V voltage until the biomarker reached the end of gels. Next, SDS‐PAGE gels and PVDF membrane were clipped together to perform transmembrane procedure under 350 mA currency for 1 h. Then after incubation with 5% skim milk, TBST, primary antibody and secondary antibody, the PVDF membrane was treated with ECL chemiluminescence solution (Boster Biological Technology #AR1174) and imaged by the imager (Imager 680 Amersham Imager).

[5] = test system: immune cells of MC38 syngeneic model; experiment: Flow cytometry of tumor-infiltrating and spleen immune cells, MC38 model; format: in vivo, C57BL/6J mice
Protocol: After 14 days, the tumors and spleens were split, and cells were isolated to analyze the change in cancer immunity. For TILs, the tumors were incubated with the tumor digestion fluid (collagenase and hyaluronic acid included) and then filtered with a 200‐gauge mesh and centrifuged (100×g, 1 min). The supernatant was centrifuged (400×g, 5 min) and precipitated cells were purified by 40% percoll solution followed by RBC lysis and washing. For splenocytes, the spleen was passed through a 200‐gauge mesh, and splenocytes were collected after RBC lysis and washing.
The prepared cell suspensions were incubated with rat serum at room temperature for 30 min to block the FC‐receptor and incubated with fluorescent antibodies at 4°C for 1 h. For Foxp3 staining, Foxp3/Transcription Factor Staining Buffer Set (eBioscience; #00‐5523‐00) was used. For intracellular cytokines staining, cells were pre‐stimulated with 1 µg/mL ionomycin (Beyotime; #S1672), 50 ng/mL PMA (Sigma; #P1585) and Brefeldin A (BioLegend; #420601) for 4 h. Flow cytometry was conducted with FACS Celesta (BD Biosciences, USA) and analyzed with FlowJo software.

[6] = target: T3, HDAC10 (Homo sapiens, UniProt Q969S8); experiment: HDACs enzymatic assay HDAC10; format: biochemical; details: Class IIb
T3 construct: purchased BPS BIOSCIENCE Inc 50010
Protocol: as §1

[7] = target: T4, HDAC9 (Homo sapiens, UniProt Q9UKV0); experiment: HDACs enzymatic assay HDAC9; format: biochemical; details: Class IIa
T4 construct: purchased BPS BIOSCIENCE Inc 50009
Protocol: as §1

T3 sequence (Q969S8 whole entry): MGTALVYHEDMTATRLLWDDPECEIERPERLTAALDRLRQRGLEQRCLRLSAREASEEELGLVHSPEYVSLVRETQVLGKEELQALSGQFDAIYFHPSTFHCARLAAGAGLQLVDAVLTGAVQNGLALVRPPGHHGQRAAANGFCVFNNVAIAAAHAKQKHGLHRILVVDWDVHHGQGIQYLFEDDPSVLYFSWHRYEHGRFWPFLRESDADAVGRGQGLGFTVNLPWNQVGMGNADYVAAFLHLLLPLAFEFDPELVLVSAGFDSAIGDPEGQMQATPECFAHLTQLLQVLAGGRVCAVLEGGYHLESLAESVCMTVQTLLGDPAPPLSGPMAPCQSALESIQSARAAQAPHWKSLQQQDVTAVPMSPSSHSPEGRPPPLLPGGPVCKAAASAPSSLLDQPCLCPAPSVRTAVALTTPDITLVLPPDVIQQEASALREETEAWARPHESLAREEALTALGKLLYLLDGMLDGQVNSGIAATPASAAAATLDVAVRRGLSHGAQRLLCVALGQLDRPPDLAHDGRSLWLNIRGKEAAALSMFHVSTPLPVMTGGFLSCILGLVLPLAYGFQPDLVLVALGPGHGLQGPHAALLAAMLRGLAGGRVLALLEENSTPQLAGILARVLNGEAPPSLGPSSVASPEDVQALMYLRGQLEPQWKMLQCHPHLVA
T2 sequence (Q9UQL6 whole entry): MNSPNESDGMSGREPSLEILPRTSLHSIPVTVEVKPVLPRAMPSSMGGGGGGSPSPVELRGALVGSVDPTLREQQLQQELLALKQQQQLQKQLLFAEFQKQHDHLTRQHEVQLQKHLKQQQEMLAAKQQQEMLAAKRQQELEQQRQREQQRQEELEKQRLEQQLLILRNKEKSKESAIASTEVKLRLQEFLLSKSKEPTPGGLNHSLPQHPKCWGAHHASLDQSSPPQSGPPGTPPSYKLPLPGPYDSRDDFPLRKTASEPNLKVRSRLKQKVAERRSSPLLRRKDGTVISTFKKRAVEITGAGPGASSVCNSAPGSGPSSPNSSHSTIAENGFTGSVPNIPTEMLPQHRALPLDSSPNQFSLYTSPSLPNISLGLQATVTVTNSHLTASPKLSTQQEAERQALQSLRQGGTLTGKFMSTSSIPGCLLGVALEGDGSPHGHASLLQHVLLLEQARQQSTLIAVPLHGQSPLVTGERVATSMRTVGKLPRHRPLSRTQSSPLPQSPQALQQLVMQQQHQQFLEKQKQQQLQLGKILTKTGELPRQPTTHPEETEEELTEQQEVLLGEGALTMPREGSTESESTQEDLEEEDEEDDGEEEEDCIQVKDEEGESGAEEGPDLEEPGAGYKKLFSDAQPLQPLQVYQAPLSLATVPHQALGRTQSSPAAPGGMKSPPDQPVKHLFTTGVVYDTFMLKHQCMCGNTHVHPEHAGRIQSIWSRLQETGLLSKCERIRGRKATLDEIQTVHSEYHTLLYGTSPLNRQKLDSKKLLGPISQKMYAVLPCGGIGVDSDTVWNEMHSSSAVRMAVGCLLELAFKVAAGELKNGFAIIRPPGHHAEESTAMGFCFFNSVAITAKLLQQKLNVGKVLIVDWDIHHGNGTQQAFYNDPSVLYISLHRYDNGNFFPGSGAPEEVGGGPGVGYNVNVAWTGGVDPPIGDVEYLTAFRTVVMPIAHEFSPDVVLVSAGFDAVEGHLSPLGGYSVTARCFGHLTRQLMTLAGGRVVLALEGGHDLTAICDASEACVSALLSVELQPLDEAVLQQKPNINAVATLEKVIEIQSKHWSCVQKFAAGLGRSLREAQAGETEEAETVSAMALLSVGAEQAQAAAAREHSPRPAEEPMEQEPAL
T4 sequence (Q9UKV0 whole entry): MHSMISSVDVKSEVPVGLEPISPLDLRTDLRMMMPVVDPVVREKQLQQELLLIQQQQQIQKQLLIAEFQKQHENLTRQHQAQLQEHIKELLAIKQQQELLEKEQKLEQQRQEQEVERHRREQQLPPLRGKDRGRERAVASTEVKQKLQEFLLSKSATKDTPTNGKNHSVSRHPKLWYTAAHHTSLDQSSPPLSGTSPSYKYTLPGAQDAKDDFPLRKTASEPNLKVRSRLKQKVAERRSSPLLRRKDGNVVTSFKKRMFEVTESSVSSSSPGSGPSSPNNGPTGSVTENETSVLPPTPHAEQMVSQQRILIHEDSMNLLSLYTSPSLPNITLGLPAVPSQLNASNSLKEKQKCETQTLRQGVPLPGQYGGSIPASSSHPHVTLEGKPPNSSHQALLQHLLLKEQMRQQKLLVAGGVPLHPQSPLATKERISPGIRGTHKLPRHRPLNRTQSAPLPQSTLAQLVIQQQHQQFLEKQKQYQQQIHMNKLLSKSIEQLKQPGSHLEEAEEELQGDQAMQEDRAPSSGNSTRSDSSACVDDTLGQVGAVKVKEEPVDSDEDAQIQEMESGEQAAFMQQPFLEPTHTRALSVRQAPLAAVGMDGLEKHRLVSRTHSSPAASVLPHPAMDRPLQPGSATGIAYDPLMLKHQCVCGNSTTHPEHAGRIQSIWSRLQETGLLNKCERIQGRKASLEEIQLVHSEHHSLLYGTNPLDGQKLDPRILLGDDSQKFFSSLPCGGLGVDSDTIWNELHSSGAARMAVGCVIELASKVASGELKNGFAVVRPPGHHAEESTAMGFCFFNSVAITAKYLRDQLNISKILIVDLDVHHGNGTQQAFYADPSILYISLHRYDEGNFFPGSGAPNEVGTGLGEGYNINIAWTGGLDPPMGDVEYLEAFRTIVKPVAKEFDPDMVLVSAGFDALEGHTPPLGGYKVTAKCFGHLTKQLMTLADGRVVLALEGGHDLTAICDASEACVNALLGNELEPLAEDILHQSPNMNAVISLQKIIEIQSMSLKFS
T1 sequence (P56524 whole entry): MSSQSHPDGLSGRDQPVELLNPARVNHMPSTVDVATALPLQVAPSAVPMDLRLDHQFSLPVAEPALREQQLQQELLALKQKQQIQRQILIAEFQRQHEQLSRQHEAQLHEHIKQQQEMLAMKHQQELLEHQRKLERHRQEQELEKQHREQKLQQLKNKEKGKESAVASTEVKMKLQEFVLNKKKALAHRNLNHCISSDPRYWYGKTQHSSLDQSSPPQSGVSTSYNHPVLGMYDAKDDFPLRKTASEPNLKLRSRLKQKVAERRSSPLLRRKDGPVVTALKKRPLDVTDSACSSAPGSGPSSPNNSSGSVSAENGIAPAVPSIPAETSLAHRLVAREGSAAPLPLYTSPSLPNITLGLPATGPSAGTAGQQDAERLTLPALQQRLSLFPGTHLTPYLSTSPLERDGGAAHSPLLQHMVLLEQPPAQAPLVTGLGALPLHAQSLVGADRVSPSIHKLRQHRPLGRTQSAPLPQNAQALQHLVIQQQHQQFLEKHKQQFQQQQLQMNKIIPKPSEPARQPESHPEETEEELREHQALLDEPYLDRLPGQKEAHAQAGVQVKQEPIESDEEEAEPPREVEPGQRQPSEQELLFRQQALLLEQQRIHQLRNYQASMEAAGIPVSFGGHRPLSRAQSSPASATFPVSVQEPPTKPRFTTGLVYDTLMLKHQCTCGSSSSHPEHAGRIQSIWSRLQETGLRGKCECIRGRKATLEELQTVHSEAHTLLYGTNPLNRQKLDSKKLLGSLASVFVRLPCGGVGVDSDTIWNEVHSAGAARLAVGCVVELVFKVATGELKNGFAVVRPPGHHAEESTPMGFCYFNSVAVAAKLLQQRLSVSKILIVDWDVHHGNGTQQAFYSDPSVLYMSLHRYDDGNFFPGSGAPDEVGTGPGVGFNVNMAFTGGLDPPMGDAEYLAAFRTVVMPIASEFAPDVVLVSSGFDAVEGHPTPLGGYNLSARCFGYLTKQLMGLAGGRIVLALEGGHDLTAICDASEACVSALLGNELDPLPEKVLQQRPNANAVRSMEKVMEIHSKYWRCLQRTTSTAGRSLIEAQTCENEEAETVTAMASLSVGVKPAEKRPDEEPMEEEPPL

O=C(CCCCCCNC(=O)c1cc(OCCc2ccccc2)c2ccccc2n1)NO [SDFZ-8]
IC50 [1]: > 10 µM | IC50 ([2]; mean ± SD of three determinations, read-out: HDAC inhibitory activity IC50 (HeLa extract)): 0.01 µM | HDAC inhibitory activity surpassing LBH-589 ([2]; versus LBH-589): 2.5 fold | HDAC inhibitory activity surpassing SAHA ([2]; versus SAHA): 28.6 fold | IC50 [3]: > 10 µM | antiapoptotic protein Bcl-2 expression [4]: downregulating | levels of cleaved caspase-3 and cleaved PARP [4]: increase | proapoptotic protein Bax expression [4]: upregulated | level of acetylated histone H3 (Ac-H3) ([4]; western blotting): upregulation | level of acetylated tubulin (Ac-tubulin) ([4]; western blotting): upregulation | PD-1 expression in tumor-infiltrating CD4+ T cells and CD8+ T cells [5]: did not affect | PD-1 expression in tumor-infiltrating NK cells [5]: downregulated | PD-L1 expression in tumor-infiltrating immune cells (DCs and macrophages) [5]: upregulation | surface expression of MHC class II in DCs and macrophages [5]: significantly increased | tumor-infiltrating lymphocytes (TILs) ([5]; CD4+ and CD8+ T cells): more significant increase | M2 polarization of TAMs ([5]; CD206 marker): suppressed | M1 polarization of TAMs ([5]; iNOS marker): robustly promoted | PD-L1 and PD-1 expression in various immune cells in the spleen ([5]; spleen): significantly decreased | proportion of CD4+ T cells, CD8+ T cells and NK cells in the spleen ([5]; spleen): elevated | expression of IFN-γ and TNF-α in CD4+ T cells and CD8+ T cells ([5]; tumor): upregulation | IC50 [6]: > 10 µM | IC50 [7]: > 10 µM
